Experimental data taken from patent US9512120B2, “Microbicidally active imidazopyridine derivatives” (Syngenta Participations AG, priority 2013, dated 2016).

Columns and labels:
Pyrenophora teres = Pyrenophora teres / barley / leaf disc preventative (net blotch); assay type: in vivo; settings: foliar, barley leaf segments cv Hasso, inoculated two days after application, assessed 5-7 days after application, read-out: control of Pyrenophora teres (disease control compared to untreated)
Outline: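 Preventative leaf-disc test: 200 ppm spray, then spore inoculation after two days on barley cv Hasso segments. Incubation 20 °C, 65% relative humidity, 12 h light/12 h dark; efficacy rated against untreated checks at 5-7 days post-application.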

[1] = system: Phaeosphaeria nodorum (Septoria nodorum); experiment: Phaeosphaeria nodorum (Septoria nodorum) / wheat / leaf disc preventative (glume blotch); assay type: in vivo; settings: Parastagonospora nodorum, foliar, wheat leaf segments cv Kanzler, inoculated 2 days after application, assessed 5-7 days after application, read-out: control of Phaeosphaeria nodorum (percent disease control compared to untreated)
Outline: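 Wheat leaf segments (cv Kanzler) on agar sprayed with compound at 200 ppm, inoculated with spores 2 days later. Incubated at 20° C., 75% relative humidity, 12/12 h light/dark; percent disease control versus untreated scored 5-7 days after application.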

Gaeumannomyces graminis = Gaeumannomyces graminis / liquid culture (take-all of cereals); assay type: cell-based; settings: PDB, 24° C., 4-5 days after application, read-out: control of Gaeumannomyces graminis (inhibition of growth, photometric)
Outline: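 Growth inhibition, measured by photometry 4-5 days post-application at 24 °C, of fungal mycelial fragments in PDB broth. Test compound applied as DMSO solution at 200 ppm.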

Sclerotinia sclerotiorum = Sclerotinia sclerotiorum liquid culture (cottony rot / white mold); assay type: cell-based; settings: PDB, 24° C., 3-4 days after application, read-out: control of Sclerotinia sclerotiorum (inhibition of growth, photometric)
Outline: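 Mycelia fragments of Sclerotinia sclerotiorum in potato dextrose broth were added to compound in DMSO. Cultures incubated at 24° C; growth inhibition determined photometrically 3-4 days after application.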

[2] = system: Puccinia recondita f. sp. Tritici; experiment: Puccinia recondita f. sp. tritici / wheat / leaf disc preventative (brown rust); assay type: in vivo; settings: foliar, wheat leaf segments cv Kanzler, inoculated 1 day after application, assessed 7-9 days after application, read-out: control of Puccinia recondita f. sp. Tritici (percent disease control compared to untreated)
Outline: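 Preventative test: percent disease control relative to untreated leaf segments was assessed 7-9 days post-application. Wheat (cv Kanzler) leaf discs were treated at 200 ppm and spore-inoculated 1 day afterwards. Discs were held at 19° C and 75% relative humidity under a 12/12 h light cycle.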

[3] = system: Thanatephorus cucumeris (Rhizoctonia solani); experiment: Thanatephorus cucumeris (Rhizoctonia solani) / liquid culture (foot rot, damping-off); assay type: cell-based; settings: PDB, 24° C., 3-4 days after application, read-out: control of Thanatephorus cucumeris (inhibition of growth, photometric)
Outline: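 At 200 ppm, compounds in DMSO were combined with fresh liquid-culture mycelia in PDB and kept at 24° C; photometric measurement of growth inhibition after 3-4 days.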

[4] = system: Glomerella lagenarium (Colletotrichum lagenarium); experiment: Glomerella lagenarium (Colletotrichum lagenarium) / liquid culture (anthracnose); assay type: cell-based; settings: Colletotrichum orbiculare, PDB, 24° C., 3-4 days after application, read-out: control of Glomerella lagenarium (inhibition of growth, photometric)
Outline: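 Test compound, delivered in DMSO at an application rate of 200 ppm, was combined with spore-containing PDB. Photometric growth-inhibition measurement followed 3-4 days of incubation at 24° C.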

[5] = system: Mycosphaerella arachidis (Cercospora arachidicola); experiment: Mycosphaerella arachidis (Cercospora arachidicola) / liquid culture (early leaf spot); assay type: cell-based; settings: PDB, 24° C., 4-5 days after application, read-out: control of Mycosphaerella arachidis (inhibition of growth, photometric)
Outline: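 Conidia suspended in potato dextrose broth and added to test compound from DMSO solution at 200 ppm. Incubated at 24 °C; growth inhibition read photometrically 4-5 days after application.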

[6] = system: Monographella nivalis (Microdochium nivale); experiment: Monographella nivalis (Microdochium nivale) / liquid culture (foot rot cereals); assay type: cell-based; settings: PDB, 24° C., 4-5 days after application, read-out: control of Monographella nivalis (inhibition of growth, photometric)
Outline: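 Cryostored conidia in potato dextrose broth were added to test compound dispensed from DMSO at 200 ppm. Plates were kept at 24° C, and growth inhibition was read photometrically 4-5 days after application.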

[7] = system: Mycosphaerella graminicola (Septoria tritici); experiment: Mycosphaerella graminicola (Septoria tritici) / liquid culture (Septoria blotch); assay type: cell-based; settings: Zymoseptoria tritici, PDB, 24° C., 4-5 days after application, read-out: control of Mycosphaerella graminicola (inhibition of growth, photometric)
Outline: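 Growth inhibition was read photometrically after 4–5 days at 24 °C. The test compound was applied at 200 ppm from DMSO solution, then PDB broth seeded with conidia taken straight from cryogenic storage was added.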

[8] = system: Botryotinia fuckeliana (Botrytis cinerea); experiment: Botryotinia fuckeliana (Botrytis cinerea) / liquid culture (gray mould); assay type: cell-based; settings: Vogels broth, 24° C., 3-4 days after application, read-out: control of Botryotinia fuckeliana (inhibition of growth, photometric)
Outline: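 Test compound was applied at 200 ppm in DMSO, then Vogels nutrient broth containing cryo-stored B. cinerea conidia was added. Photometric growth-inhibition reading followed after 3-4 days at 24 °C.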

Fusarium culmorum = experiment: microbe, parasite or virus in culture; assay type: cell-based; settings: read-out: control of Fusarium culmorum (inhibition of growth, photometric)
Pythium ultimum = Pythium ultimum / liquid culture (seedling damping off); assay type: cell-based; settings: Globisporangium ultimum, potato dextrose broth, 24° C., 2-3 days after application, read-out: control of Pythium ultimum (inhibition of growth, photometric)
Description: Pythium ultimum/Liquid Culture (Seedling Damping Off) Mycelia fragments and oospores of a newly grown liquid culture of the fungus were directly mixed into nutrient broth (potato dextrose broth). After placing a DMSO solution of test compound into a 96-well format microtiter plate at an application rate of 200 ppm, the nutrient broth containing the fungal mycelia/spore mixture was added. The test plates were incubated at 24° C. and the inhibition of growth was determined photometrically 2-3 days after application.

Plasmopara viticola = Plasmopara viticola / grape / leaf disc preventative; assay type: in vivo; settings: foliar, grape vine leaf disks, inoculated 1 day after application, assessed 6-8 days after application, read-out: control of Plasmopara viticola (percent disease control compared to untreated)

SMILES | pest or weed control at 200 ppm (Pyrenophora teres) | pest or weed control at 200 ppm [1] | inhibition at 20 ppm (Gaeumannomyces graminis) | melting point | inhibition at 20 ppm (Sclerotinia sclerotiorum) | pest or weed control at 200 ppm [2] | inhibition at 20 ppm [3] | inhibition at 20 ppm [4] | inhibition at 20 ppm [5] | inhibition at 20 ppm [6] | inhibition at 20 ppm [7] | inhibition at 20 ppm [8] | inhibition at 20 ppm (Fusarium culmorum) | inhibition at 20 ppm (Pythium ultimum) | pest or weed control at 200 ppm (Plasmopara viticola)
CCn1c(-n2ncnc2N)nc2cncc(C#CC3CC3)c21 [Compound 123, 2-[7-(2-cyclopropylethynyl)-1-ethylimidazo[4,5-c]pyridin-2-yl]-1,2,4-triazol-3-amine] | ≥ 80% | ≥ 80% | ≥ 80% | 188 to 192 °C | ≥ 80% | ≥ 80% | ≥ 80% | ≥ 80% | ≥ 80% | ≥ 80% | ≥ 80% | ≥ 80% | ≥ 80% |  | 
CCn1c(-n2ncnc2N)nc2cncc(Br)c21 [Compound 15, 2-(7-bromo-1-ethylimidazo[4,5-c]pyridin-2-yl)-1,2,4-triazol-3-amine] | ≥ 80% | ≥ 80% | ≥ 80% | 231 to 232 °C | ≥ 80% | ≥ 80% | ≥ 80% | ≥ 80% | ≥ 80% | ≥ 80% | ≥ 80% | ≥ 80% | ≥ 80% |  | 
C=C(OCC)c1cncc2nc(-n3ncnc3N)n(CC)c12 [Compound 74, 2-[7-(1-ethoxyethenyl)-1-ethylimidazo[4,5-c]pyridin-2-yl]-1,2,4-triazol-3-amine] | ≥ 80% | ≥ 80% | ≥ 80% | 193 to 195 °C | ≥ 80% | ≥ 80% | ≥ 80% | ≥ 80% | ≥ 80% | ≥ 80% | ≥ 80% | ≥ 80% | ≥ 80% |  | 
C=Cc1cncc2nc(-n3ncnc3N)n(CC)c12 [Compound 106, 2-(7-ethenyl-1-ethylimidazo[4,5-c]pyridin-2-yl)-1,2,4-triazol-3-amine] | ≥ 80% |  | ≥ 80% | 178 to 186 °C | ≥ 80% |  | ≥ 80% |  | ≥ 80% | ≥ 80% | ≥ 80% | ≥ 80% | ≥ 80% | ≥ 80% | 
CCCCCCO/N=C(/C)c1cncc2nc(-n3ncnc3N)n(CC)c12 [Compound 147] | ≥ 80% | ≥ 80% |  |  | ≥ 80% | ≥ 80% | ≥ 80% | ≥ 80% | ≥ 80% | ≥ 80% | ≥ 80% | ≥ 80% | ≥ 80% |  | 
C=C(C)CO/N=C(/C)c1cncc2nc(-n3ncnc3N)n(CC)c12 [Compound 178] | ≥ 80% |  | ≥ 80% |  | ≥ 80% | ≥ 80% | ≥ 80% |  | ≥ 80% | ≥ 80% | ≥ 80% | ≥ 80% | ≥ 80% |  | ≥ 80%
CCCn1c(-n2ncnc2N)nc2cncc(/C(C)=N\OC/C=C\Cl)c21 [Compound 180] | ≥ 80% |  | ≥ 80% |  | ≥ 80% | ≥ 80% | ≥ 80% |  | ≥ 80% | ≥ 80% | ≥ 80% | ≥ 80% | ≥ 80% | ≥ 80% | ≥ 80%
CCn1c(-n2ncnc2N)nc2cncc(-c3ccc(OC)cc3F)c21 [Compound 96, 2-[1-ethyl-7-(2-fluoro-4-methoxyphenyl)imidazo[4,5-c]pyridin-2-yl]-1,2,4-triazol-3-amine] | ≥ 80% | ≥ 80% | ≥ 80% |  | ≥ 80% | ≥ 80% | ≥ 80% | ≥ 80% |  | ≥ 80% | ≥ 80% | ≥ 80% | ≥ 80% | ≥ 80% | 
C/C=C/CO/N=C(/C)c1cncc2nc(-n3ncnc3N)n(CC)c12 [Compound 176] | ≥ 80% | ≥ 80% | ≥ 80% |  | ≥ 80% |  | ≥ 80% |  | ≥ 80% | ≥ 80% | ≥ 80% | ≥ 80% | ≥ 80% | ≥ 80% | ≥ 80%
CCCn1c(-n2ncnc2N)nc2cncc(/C(C)=N\OC/C=C(\C)Cl)c21 [Compound 184] | ≥ 80% | ≥ 80% | ≥ 80% |  | ≥ 80% | ≥ 80% | ≥ 80% |  | ≥ 80% | ≥ 80% | ≥ 80% | ≥ 80% | ≥ 80% |  | ≥ 80%
CCCn1c(-n2ncnc2N)nc2cncc(/C(C)=N\OC/C=C/Cl)c21 [Compound 182] | ≥ 80% | ≥ 80% |  |  | ≥ 80% | ≥ 80% | ≥ 80% |  | ≥ 80% | ≥ 80% | ≥ 80% | ≥ 80% | ≥ 80% |  | ≥ 80%
CCn1c(-n2ncnc2N)nc2cncc(-c3ccc(F)cc3Cl)c21 [Compound 101, 2-[7-(2-chloro-4-fluorophenyl)-1-ethylimidazo[4,5-c]pyridin-2-yl]-1,2,4-triazol-3-amine] | ≥ 80% | ≥ 80% | ≥ 80% |  | ≥ 80% | ≥ 80% | ≥ 80% | ≥ 80% | ≥ 80% | ≥ 80% | ≥ 80% | ≥ 80% | ≥ 80% | ≥ 80% | 
